Each structure is given as a SMILES string.

In one data set the test system is 42D^ENZR cells. Description: Cell proliferation, BRN2 expressing 42D cells (crystal violet). Format: cell-based. The conditions noted are these: about 72 hours. An outline of the steps:
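42D^ENZR (~7000/well) and 16D^CRPC (~5000/well) cells plated, compound added next day from 3× media stocks. After ~72 hours, cells fixed with glutaraldehyde, stained with crystal violet, dye eluted in Sorensen solution; absorbance read at 590 nm.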

Another data set relates to 16D^CRPC cells. Description: Cell proliferation, 16D cells that do not express BRN2 (crystal violet). Format: cell-based. Particulars: result in words. How it is done:
Step 3: Cell Proliferation
Plate 42DE^NZR (˜7000 cells per well) and 16D^CRPC (˜5000 cells per well) cells in 96 well plate with a volume of 100 μL per well. • 2. Next day 1 mL aliquots of media are combined with 3× the desired concentration of compounds. The aliquots are vortexed and 50 μL of each 3× concentration is added to the 100 μL of media in each well to give the ix desired concentration.
The following are the desired concentrations:
0, 10 nM, 100 nM, 500 nM, 1 μM, 2.5 μM, 5 μM, 10 μM, 15 μM, 20 μM, 30 μM. • 3. Approximately 72 hours later, 17 μL of 10% Glutaraldehyde is added to each well and plates are placed on a shaker for 20-30 minutes. • 4. Media is washed off the fixed cells by slow submersion in a container of water. Then the water is removed by tapping the plate upside down. • 5. 75 μL of Crystal Violet™ solution is added into the 96 well plates and placed on a shaker for ˜30 minutes. • 6. Media is washed off the fixed cells by repeated slow submersion in a container of water and the plates are allowed to dry over-night. • 7. Next day, 75 μL of Sorensen Solution is accurately pipetted into each well. The plates placed on a shaker for ˜30 minutes. • 8. Absorbance is measured in the plate at 590 nm. Compounds that Show Specificity Towards 42DE^NZR Cells Vs 16D^CRPC Cells Progress to Step 4.
In TABLES 1 and 2, in columns Met Stab % and T½, refers to compound's stability in MLM. There is a distinction in TABLES 1 and 2 difference between “Active” and “Specific” or “Specificity”. Some of the compounds were first tested to quantify inhibition of BRN2 transcriptional activity in a luciferase assay to determine BRN2 inhibition at 10 μM and 30 μM concentrations. […] Generally, compounds having low inhibitory activity were compounds with less than about ˜30% or activation at either concentration (i.e. 10 μM or 30 μM). Furthermore, some compounds that lacked specificity could also show off-target effects.

Data set [1] is described as follows: Metabolic stability in liver microsomes (MLM). In kind it is in vitro ADME, mice. The conditions noted are these: 0.25 mg/mL protein. Put shortly:
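Mouse liver microsomes (0.25 mg/mL protein) in 50 mM potassium phosphate pH 7.4 at 37 °C with 1 µM compound, 1 mM NADPH, 0.1% DMSO; sampled 0–60 min in duplicate. LC-MS/MS parent depletion gives half-life; CL'int in mL/min/kg scaled with 45 mg protein/g liver, 90 g liver.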

By IC50 is commonly meant the concentration needed to halve the response being measured. For `O=C1/C(=N\Nc2nc3ccccc3s2)Cc2ccccc21` [7-62, (Z)-2-(2-(benzo[d]thiazol-2-yl)hydrazineylidene)-2,3-dihydro-1H-inden-1-one], the “Growth Specificity” value in the data set on 42D^ENZR cells (42D (express BRN2) versus 16D (no BRN2) cells, result in words) was “Specific to 42D”. In the data set with 42D^ENZR cells (42D cells, proliferation, read-out: 42D IC50), the IC50 was 1000 nM. For the same compound, in the data set on 16D^CRPC cells, the “effect on 16D” value is “no effect on 16D”. Also, in data set [1] (mouse, liver microsomes, pH 7.4, 1 μM compound, read-out: T1/2 in mins (MLM)), the half-life at 1 μM amounted to 40 min. For the same compound, in data set [1] (percent remaining at 60 min, 1 μM compound, 1 mM NADPH), the “Met Stab % (60 mins) MLM” value was found to be 31%.

For the origin of these results see US20250205204A1, “Transcription Factor Brn2 Inhibitory Compounds for Use as Therapeutics” (The University of British Columbia, priority 2021, published 2025).
